What was measured:
[1] = Storage stability in pH7.4-PBS or pure water at 37° C. protected from light, residual rate by HPLC; assay type: physicochemical; details: 200 μmol/l; for Residual rate (%) After 1 week / Residual rate (%) After 2 weeks: 37° C., protected from light; for Residual rate (%) Initial concentration: initial concentration (reference 100%)
Procedure: The storage stability of edaravone, EMPO, ED2AP, and BisEp-C3 of the following formula (A) were examined. Specifically, edaravone, EMPO, ED2AP, and BisEp-C3 were dissolved in pH7.4-PBS or pure water so as to have a final concentration of 200 μmol/l to prepare dissolved solutions of these compounds. When the compounds were difficult to be dissolved, they were dissolved in an ultrasonic cleaner with warm water at 40° C.
Under the measurement conditions for HPLC described below, the initial concentration was quantified, and then each solution was stored in an oven, which was protected from light, at 37° C., and quantified under the same measurement conditions after 1 week and 2 weeks, to determine residual rate (%) with the initial concentration (100%) being a reference.
Measurement conditions for HPLC
PDA detector (Format: SPD-M20A) HPLC Assay Conditions:
Column: Atlantis dC18 5 μm (250×4.6 mm I.D.; produced by Waters)
Column temperature: 45° C.
Detection method: UV (254 nm)
Eluate A: pH3 buffer solution (adjusted to pH3 by adding phosphoric acid to 0.05M KH2PO4 aqueous solution)/methanol=90/10

[2] = Water solubility noted at synthesis; assay type: physicochemical; details: crystal obtained in Example 1
Procedure: 3.58 g of 3-methyl-1-phenyl-5-pyrazolone (hereinafter, also referred to as “edaravone”), 2.59 g of malonaldehyde dianilide hydrochloride, and 20 ml of ethanol were added to a reactor and dissolved. To the obtained solution, 2.04 g of triethylamine and 0.4 ml of water were added and stirred for 1 hour at room temperature (about 25° C., hereinafter, the same applies). After the stirring, the resultant was further reacted for 1 hour at 50° C. After discharging the obtained reaction solution to 100 ml of 1N hydrochloric acid, the mixture was sufficiently stirred and the precipitate was filtered. The resulting cake was washed with water. The cake was added to 200 ml of an aqueous sodium hydroxide solution having a 1% by weight concentration and completely dissolved by heating with stirring. Next, the dissolved solution was stirred for 3 hours after cooling to room temperature. Then, the liquid containing the obtained precipitate was filtered, and then the cake was washed with water. […] Note that the melting point of ED2AP was 249° C., which was water-soluble.
3 ml of dimethylformamide was added to a reactor and the exterior of the reactor was cooled with ice water. 1.75 g of phosphorus oxychloride was slowly dropped into the reactor (Reaction Solution A). In another reactor, 1.78 g of edaravone was dissolved in 5 ml of dimethylformamide (Reaction Solution B). Under room temperature, the reaction solution B was slowly added to the reaction solution A, and the resulting mixture was allowed to react for 1 hour with the end of addition (Reaction Solution C) being a reference. In another reactor, 1.81 g of 3-methyl-1-phenyl-5-pyrazolone was added to 8 ml of chloroform and dissolved (Reaction Solution D). Under room temperature, the reaction solution C was slowly added to the reaction solution D, followed by stirring for 20 minutes and further stirring at 70° C. for 1 hour. To the resultant, 0.2 g of water was added and stirred for another 2 hours. The obtained reaction solution was discharged into 100 ml of water and extracted with a mixed solvent of toluene/ethyl acetate=1/1 (volume ratio). After condensation of the obtained extract, column purification was performed to obtain 2.92 g of yellow crystal of the compound of the formula (10) having the following physical properties.
1.00 g of edaravone, 0.72 g of paraformaldehyde, and 20 ml of formic acid were added to a reaction flask and stirred overnight for 20 hours at 70° C. The obtained reaction solution was discharged into 80 ml of water and extracted with a mixed solvent of toluene/ethyl acetate=1/1 (volume ratio). When the extract was condensed to about two-thirds, crystals were precipitated. Further, the resultant was cooled to room temperature, and sufficiently crystallized, and then filtered. The obtained cake was washed with toluene to obtain 0.88 g of pale yellow crystal of the compound of the formula (14) having the following physical properties.
In Example 1(1), synthesis was performed in the same manner as described above except that 3-methyl-1-ethyl-5-pyrazolone was used instead of edaravone to obtain red crystal of BisEp-C3 having the following physical properties. Note that BisEp-C3 was water-soluble.
In Example 1(2), synthesis was performed in the same manner as described above except that 3-methyl-1-ethyl-5-pyrazolone was used instead of edaravone to obtain yellow crystal of BisEp-C1 having the following physical properties. Note that BisEp-C1 was water-soluble.
In Example 1(3), synthesis was performed in the same manner as described above except that 3-methyl-1-ethyl-5-pyrazolone was used instead of edaravone, then the obtained reaction solution was condensed, and the resultant was subjected to column purification to obtain colorless crystal of BisEp-C1 (H2) having the following physical properties. Note that BisEp-C1 (H2) was water-soluble.

rat neuroid cells B50 [3] = assay: Toxicity evaluation, cell viability by Alamar Blue after 24 hours; assay type: cell-based; details: 12.5, 25, 50, 100, or 200 μmol/l, FIG. 5
Procedure: Rat neuroid cells B50 were seeded in 12-well plates and then cultured. Edaravone (RC), ED2AP, or BisEp-C3 was added to each well so as to achieve a predetermined concentration (12.5, 25, 50, 100, or 200 μmol/l), and then incubated for 24 hours at 37° C. and 5% CO2. Cell viability in each well after the culture was measured using Alamar Blue.

rat neuroid cells B50 [4] = assay: Toxicity evaluation on byproducts after reaction with singlet oxygen, cell viability; assay type: cell-based; details: 50, 100, or 200 μmol/l reacted with RB + G-LED 525 nm in cell-free system; FIG. 6
Procedure: In a cell-free system, the RB was added to media (50% FCS-containing RPMI-1640 media) containing edaravone, ED2AP, and BisEp-C3 having a predetermined concentration (50, 100, or 200 μmol/l) and then irradiated with LED (G-LED) at 525 nm to generate singlet oxygen, whereby reacting each compound with singlet oxygen. The cell viability was measured in the same manner as in Example 7(1), except that the culture solution after the reaction was used as a medium of the neuroid cell B50. As a negative control (NC), the cell viability was measured in the same manner except that each compound and […] were not added in the cell-free system. Further, as a control (RB), the cell viability was measured in the same manner except that each compound was not added and only […] was added in the cell-free system.

Residual rate (%) After 1 week ([1]; Pure water) [%]	Residual rate (%) After 2 weeks ([1]; Pure water) [%]	Residual rate (%) Initial concentration ([1]; Pure water) [%]	Residual rate (%) After 1 week ([1]; pH 7.4-PBS) [%]	Residual rate (%) After 2 weeks ([1]; pH 7.4-PBS) [%]	Residual rate (%) Initial concentration ([1]; pH 7.4-PBS) [%]	solubility in water [2]	SMILES	cytotoxicity (cell viability) (rat neuroid cells B50 [3])	cytotoxicity of the byproducts after reaction with singlet oxygen (cell viability) (rat neuroid cells B50 [4])
96.1	89.8	100	96.2	91.3	100	water-soluble	CC1=NN(c2ccccc2)C(=O)/C1=C/C=C/c1c(C)nn(-c2ccccc2)c1O (racemic) [ED2AP, 2,4-dihydro-4-[3-(5-hydroxy-3-methyl-1-phenyl-1H-pyrazol-4-yl)-2-propen-1-ylidene]-5-methyl-2-phenyl-3H-pyrazol-3-one]	not cytotoxic at any concentration	not cytotoxic at any concentration
99.4	88.5	100	98.7	93.6	100	water-soluble	CCN1N=C(C)/C(=C\C=C\c2c(C)nn(CC)c2O)C1=O (racemic) [BisEp-C3, 2,4-dihydro-4-[3-(1-ethyl-5-hydroxy-3-methyl-1H-pyrazol-4-yl)-2-propen-1-ylidene]-2-ethyl-5-methyl-3H-pyrazol-3-one]	not cytotoxic at any concentration	not cytotoxic at any concentration

Source: US20220110916A1, “Antioxidant and Use Thereof” (Bioradical Research Institute Corp., priority 2019, published 2022)
